Laboratory results: patent US20150342847A1, “NOVEL DERIVATIVES OF SINAPINIC ACID AND THE COSMETIC OR PHARMACEUTICAL USES THEREOF” (BASF Beauty Care Solutions France SAS, priority 2012, published 2015)

Columns and labels:
[1] = test system: melanocytes of murine line B16; experiment: Inhibition of melanin production in B16 melanocytes stimulated with an α-MSH derivative; assay type: cell-based; details: Mus musculus, B16 cells, 72 hours, read-out: % inhibition of melanin +/− standard deviation
Protocol: Determination of the percentage inhibition of melanin production by the hydroxytyrosol dihydrosinapate of the invention of formula (IIa) or the ferulic acid derivative of the prior art, by quantitative analysis of the total melanin synthesized by melanocytes of murine line B16 following application of the compound under test.
Melanocytes (B16 cells) are cultured for 24 hours in a 96-well plate in an appropriate medium. […] After 72 hours of incubation, the culture medium is withdrawn, and total melanin is quantified by measuring the absorbance at 405 nm against a standard range of synthetic melanin from 0.78 to 100 μg/mL.
The results are expressed as percentage inhibition of melanin production relative to the negative control, and are presented in Table 1.
The inhibitory activity on melanin production of the product tested is calculated as a percentage according to the following formula:
% inhibition=[(mean stimulated control−mean basal control)−(sample value−mean basal control)]/(mean stimulated control−mean basal control)×100
where: • Mean stimulated control: mean of the values obtained with a medium supplemented with an alpha-MSH derivative • Sample value: value obtained with the compound under test • Mean basal control: Mean of the values obtained with a medium not supplemented with an alpha-MSH derivative

melanocytes = experiment: Cytotoxicity, MTT cell viability on melanocytes; assay type: cell-based; details: for Percentage cell viability, Mean: MTT
Protocol: Study of cell viability following application of the hydroxytyrosol dihydrosinapate of the invention of formula (IIa) to keratinocytes or melanocytes.
The cells (keratinocytes or melanocytes) were cultured in a 96-well plate at 37° C. under 5% CO2 in an appropriate medium until confluence. The medium was withdrawn and then an amount of 200 μL of a 0.5 mg/mL MTT solution was added. The plates were then incubated at 37° C. for 3 hours, after which the MTT solution was withdrawn from each well and replaced with DMSO. The plates were agitated for 15 minutes, and the optical density was measured at 550 nm.
The negative cytotoxicity control is PBS. The positive cytotoxicity control is 0.25% SDS. 0.1% DMSO was used as control.

[2] = TBARS test, lipid peroxidation of UVB-irradiated liposomal suspension; details: UVB 2 hours
Protocol: Study of the radical scavenger activity of the hydroxytyrosol dihydrosinapate of the invention of formula (IIa) and of the prior-art ferulic acid derivative by the TBARS test.
Two identical 96-well plates are produced according to a defined plate plan. 50 μL of a sample mixture prepared by diluting a solution of a test compound or of a negative control (vehicle medium without test compound) or of a positive control (D-L-alpha-tocopherol) to 1/10 in a liposomal suspension are distributed per well, in quadruplicate. One of the two plates is irradiated with UVB for 2 hours. The other plate, serving as a control, is incubated in the absence of light and at ambient temperature for 2 hours.
At the end of irradiation, an amount of 100 μL of 20% trichloroacetic acid solution was added per well, followed by an amount of 34 μL of 1% thiobarbituric acid solution. The plates are then incubated at 105° C. for 25 minutes.
The contents of each well are centrifuged at 5700 rpm for 5 minutes, and then an amount of 100 μL of supernatant was deposited in new plates, according to the same plan, and the absorbance was read off at 530 nm.
The positive experimental control was D-L-alpha-tocopherol, at a concentration of 1%, for which a percentage inhibition of 80% was obtained.

SMILES: COc1cc(CCC(=O)OCCc2ccc(O)c(O)c2)cc(OC)c1O [Hydroxytyrosol dihydrosinapate (IIa), hydroxytyrosol dihydrosinapate]
- inhibition at 10 µM ([1]; 10 μM): 75%
- inhibition at 30 µM ([1]; 30 μM): 106%
- inhibition at 50 µM ([1]; 50 μM): 115%
- Percentage cell viability, Mean (melanocytes; 1 μM): 109.67%
- Percentage cell viability, Mean (melanocytes; 10 μM): 107.53%
- Percentage cell viability, Mean (melanocytes; 100 μM): 111.30%
- cytotoxicity (in words) (melanocytes; 10^−6, 10^−5 and 10^−4 M, tolerated threshold 75% viability): not cytotoxic
- % inhibition of lipid peroxidation ([2]; 1 μM after dilution to 1/10th in the liposomal suspension): −10.58%
- % inhibition of lipid peroxidation ([2]; 5 μM after dilution to 1/10th in the liposomal suspension): 8.21%
- % inhibition of lipid peroxidation ([2]; 30 μM after dilution to 1/10th in the liposomal suspension): 7.14%
- % inhibition of lipid peroxidation ([2]; 50 μM after dilution to 1/10th in the liposomal suspension): 19.12%
- % inhibition of lipid peroxidation ([2]; 100 μM after dilution to 1/10th in the liposomal suspension): 41.95%
- % inhibition of lipid peroxidation ([2]; 1000 μM after dilution to 1/10th in the liposomal suspension): 77.04%
